This note sets out measurements from patent US8969325B2, “TRPV1 antagonists” (AbbVie Inc., priority 2011, dated 2015).

For experiment [1], the target named is T1, human TRPV1 (Homo sapiens (Human), UniProt Q8NER1). Kind of experiment: Acid Activation Assay (pH 5.0, intracellular Ca2+, FLIPR). Format: cell-based. To be noted: percentage of the maximal pH 5.0-induced response remaining; recombinant HEK293 hTRPV1 cells; maximum concentration tested 37.5 μM. The gist of the method: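 Readout: peak [Ca2+]i fluorescence over baseline on FLIPR, expressed as percentage remaining of the maximal pH 5.0-evoked signal. Stable hTRPV1-HEK293 cells with Calcium-4 dye received compound (12 half-log concentrations, maximum 37.5 μM) 3 min before acidic pH 5.0 buffer.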

The target in experiment [2] is T1, human TRPV1. Kind of experiment: Capsaicin Activation Assay (intracellular Ca2+, FLIPR). It counts as cell-based. Conditions: recombinant HEK293 cells expressing hTRPV1, 50 nM capsaicin. The gist of the method:
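Ca2+ fluorescence was recorded by FLIPR every 1 to 5 seconds in HEK293 cells, clonally selected for stable human TRPV1 expression and plated one day ahead. Test compounds came as serial dilutions of 10 mM DMSO stocks.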

T1 sequence (Q8NER1 whole entry): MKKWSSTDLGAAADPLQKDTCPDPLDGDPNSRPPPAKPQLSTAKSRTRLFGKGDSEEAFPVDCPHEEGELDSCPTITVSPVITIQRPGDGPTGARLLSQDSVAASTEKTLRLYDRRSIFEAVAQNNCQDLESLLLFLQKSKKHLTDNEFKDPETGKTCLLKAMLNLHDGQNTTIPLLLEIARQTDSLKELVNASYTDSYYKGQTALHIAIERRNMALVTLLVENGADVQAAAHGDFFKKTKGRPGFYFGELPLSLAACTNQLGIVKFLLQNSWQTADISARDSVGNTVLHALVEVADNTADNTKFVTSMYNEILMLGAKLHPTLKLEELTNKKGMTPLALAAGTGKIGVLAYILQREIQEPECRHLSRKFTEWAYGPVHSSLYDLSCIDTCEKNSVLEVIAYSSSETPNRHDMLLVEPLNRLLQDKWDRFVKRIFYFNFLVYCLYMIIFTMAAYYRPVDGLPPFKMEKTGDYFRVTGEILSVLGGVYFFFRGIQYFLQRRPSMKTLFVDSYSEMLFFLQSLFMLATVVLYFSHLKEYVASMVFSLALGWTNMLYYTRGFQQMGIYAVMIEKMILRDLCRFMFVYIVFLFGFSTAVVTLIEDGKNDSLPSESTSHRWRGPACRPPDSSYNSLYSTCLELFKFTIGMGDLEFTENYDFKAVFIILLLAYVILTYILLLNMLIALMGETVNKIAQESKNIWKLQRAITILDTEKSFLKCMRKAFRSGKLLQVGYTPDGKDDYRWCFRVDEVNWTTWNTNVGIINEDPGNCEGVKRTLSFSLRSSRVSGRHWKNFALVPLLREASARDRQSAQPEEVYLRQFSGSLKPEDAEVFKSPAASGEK

In the case of `CCCC1(CCC)C[C@@H](NC(=O)Nc2ccc3c(c2)NC(=O)N(CCO)C3)c2cc(F)ccc2O1` [Example 310, 1-[(4R)-6-fluoro-2,2-dipropyl-3,4-dihydro-2H-chromen-4-yl]-3-[3-(2-hydroxyethyl)-2-oxo-1,2,3,4-tetrahydroquinazolin-7-yl]urea], the “human TRPV1 H^+ (max % remain)” value on human TRPV1 [1] was 2%. At human TRPV1 [2], the IC50 stood at 190 nM.
In the same order, the values of `O=C1CCc2ccc(NC(=O)N[C@@H]3CC(CF)(CF)Oc4c(F)cccc43)cc2N1` [Example 216, 1-[(4R)-8-fluoro-2,2-bis(fluoromethyl)-3,4-dihydro-2H-chromen-4-yl]-3-(2-oxo-1,2,3,4-tetrahydroquinolin-7-yl)urea] are 50% and 220 nM.
In the same order, the values of `O=C1CCc2ccc(NC(=O)N[C@@H]3CCOc4ccccc43)cc2N1` [Example 220, 1-[(4R)-3,4-dihydro-2H-chromen-4-yl]-3-(2-oxo-1,2,3,4-tetrahydroquinolin-7-yl)urea] are 41% and 190 nM.
On to `CN1Cc2ccc(NC(=O)N[C@@H]3C[C@](C)(CF)Oc4cc(C(F)(F)F)ccc43)cc2NC1=O` [Example 206, 1-[(2R,4R)-2-(fluoromethyl)-2-methyl-7-(trifluoromethyl)-3,4-dihydro-2H-chromen-4-yl]-3-(3-methyl-2-oxo-1,2,3,4-tetrahydroquinazolin-7-yl)urea], for which, on human TRPV1 [1], the “human TRPV1 H^+ (max % remain)” value is reported as 43%. The IC50 at human TRPV1 [2] came out at 240 nM.
In the same order, the values of `CCC1(CC)C[C@@H](NC(=O)Nc2ccc3c(c2)NC(=O)CC3)c2ccc(C(F)(F)F)cc2O1` [Example 224, 1-[(4R)-2,2-diethyl-7-(trifluoromethyl)-3,4-dihydro-2H-chromen-4-yl]-3-(2-oxo-1,2,3,4-tetrahydroquinolin-7-yl)urea] are 44% and 35 nM.
Regarding `CCC1(CC)C[C@@H](NC(=O)Nc2cccc3c2CNC(=O)N3C)c2cccc(F)c2O1` [Example 139, 1-[(4R)-2,2-diethyl-8-fluoro-3,4-dihydro-2H-chromen-4-yl]-3-(1-methyl-2-oxo-1,2,3,4-tetrahydroquinazolin-5-yl)urea], the “human TRPV1 H^+ (max % remain)” value at human TRPV1 [1] is 27%. Besides, the 50% inhibitory concentration (IC50) on human TRPV1 [2] amounted to 12 nM.
Turning to `CN1Cc2ccc(NC(=O)N[C@@H]3CC4(CCCC4)Oc4ccccc43)cc2NC1=O` [Example 205, 1-[(4R)-3,4-dihydrospiro[chromene-2,1′-cyclopentan]-4-yl]-3-(3-methyl-2-oxo-1,2,3,4-tetrahydroquinazolin-7-yl)urea], the “human TRPV1 H^+ (max % remain)” value at human TRPV1 [1] worked out at 56%. Moreover, the IC50 at human TRPV1 [2] came out at 400 nM.
Take `CN1C(=O)CCc2ccc(NC(=O)N[C@@H]3C[C@](C)(CF)Oc4cc(C(F)(F)F)ccc43)cc21` [Example 290, 1-[(2R,4R)-2-(fluoromethyl)-2-methyl-7-(trifluoromethyl)-3,4-dihydro-2H-chromen-4-yl]-3-(1-methyl-2-oxo-1,2,3,4-tetrahydroquinolin-7-yl)urea]: the “human TRPV1 H^+ (max % remain)” value on human TRPV1 [1] worked out at 68%. The IC50 at human TRPV1 [2] is 15 nM.
Regarding `O=C1CCc2ccc(NC(=O)N[C@@H]3CC4(CCCC4)Oc4ccccc43)cc2N1` [Example 244, 1-[(4R)-3,4-dihydrospiro[chromene-2,1′-cyclopentan]-4-yl]-3-(2-oxo-1,2,3,4-tetrahydroquinolin-7-yl)urea], at human TRPV1 [1], the “human TRPV1 H^+ (max % remain)” value is listed as 41%. For the same compound, the 50% inhibitory concentration (IC50) on human TRPV1 [2] came to 7100 nM.
The like results for `CN1Cc2ccc(NC(=O)N[C@@H]3CCc4cc(F)ccc43)cc2NC1=O` [Example 202, 1-[(1R)-5-fluoro-2,3-dihydro-1H-inden-1-yl]-3-(3-methyl-2-oxo-1,2,3,4-tetrahydroquinazolin-7-yl)urea] were, in that order, 50% and 220 nM.
For the compound `C[C@]1(C(F)(F)F)C[C@@H](NC(=O)Nc2ccc3c(c2)NC(=O)CO3)c2ccccc2O1` [Example 126, 1-[(2R,4R)-2-methyl-2-(trifluoromethyl)-3,4-dihydro-2H-chromen-4-yl]-3-(3-oxo-3,4-dihydro-2H-1,4-benzoxazin-6-yl)urea], at human TRPV1 [1], the “human TRPV1 H^+ (max % remain)” value is given as 87%. Also, the IC50 on human TRPV1 [2] is 58 nM.
The like results for `Cn1c(=O)ccc2c(NC(=O)N[C@@H]3CC(C)(C)Oc4cc(C(F)(F)F)ccc43)cccc21` [Example 91, 1-[(4R)-2,2-dimethyl-7-(trifluoromethyl)-3,4-dihydro-2H-chromen-4-yl]-3-(1-methyl-2-oxo-1,2-dihydroquinolin-5-yl)urea] were, in that order, 50% and 15 nM.
In the same order, the values of `CN1C(=O)NCc2c(NC(=O)N[C@@H]3C[C@@](C)(C(F)(F)F)Oc4ccccc43)cccc21` [Example 165, 1-(1-methyl-2-oxo-1,2,3,4-tetrahydroquinazolin-5-yl)-3-[(2S,4R)-2-methyl-2-(trifluoromethyl)-3,4-dihydro-2H-chromen-4-yl]urea] are 18% and 3 nM.
The like results for `Cn1c(=O)ccc2c(NC(=O)N[C@@H]3CC(CF)(CF)Oc4cc(C(F)(F)F)ccc43)cccc21` [Example 92, 1-[(4R)-2,2-bis(fluoromethyl)-7-(trifluoromethyl)-3,4-dihydro-2H-chromen-4-yl]-3-(1-methyl-2-oxo-1,2-dihydroquinolin-5-yl)urea] were, in that order, 43% and 19 nM.
For `CN1C(=O)CCc2ccc(NC(=O)N[C@@H]3CCc4cc(Cl)ccc43)cc21` [Example 283, 1-[(1R)-5-chloro-2,3-dihydro-1H-inden-1-yl]-3-(1-methyl-2-oxo-1,2,3,4-tetrahydroquinolin-7-yl)urea], the “human TRPV1 H^+ (max % remain)” value on human TRPV1 [1] came out at 84%. Further, the concentration for half-maximal inhibition (IC50) at human TRPV1 [2] stood at 4800 nM.
In the same order, the values of `Cn1c(=O)ccc2c(NC(=O)N[C@@H]3CC(CF)(CF)Oc4ccc(F)cc43)cccc21` [Example 71, 1-[(4R)-6-fluoro-2,2-bis(fluoromethyl)-3,4-dihydro-2H-chromen-4-yl]-3-(1-methyl-2-oxo-1,2-dihydroquinolin-5-yl)urea] are 46% and 29 nM.
The like results for “1-(1-methyl-2-oxo-1,2,3,4-tetrahydroquinazolin-5-yl)-3-[(4R)-8-(trifluoromethoxy)-3,4-dihydro-2H-chromen-4-yl]urea [Example 138]” were, in that order, 19% and 38 nM.
The like results for `CN1C(=O)CCc2ccc(NC(=O)N[C@@H]3CC(CF)(CF)Oc4cc(Cl)ccc43)cc21` [Example 255, 1-[(4R)-7-chloro-2,2-bis(fluoromethyl)-3,4-dihydro-2H-chromen-4-yl]-3-(1-methyl-2-oxo-1,2,3,4-tetrahydroquinolin-7-yl)urea] were, in that order, 5% and 20 nM.
On to `CN1C(=O)CCc2ccc(NC(=O)N[C@@H]3CC(CF)(CF)Oc4c(F)cccc43)cc21` [Example 281, 1-[(4R)-8-fluoro-2,2-bis(fluoromethyl)-3,4-dihydro-2H-chromen-4-yl]-3-(1-methyl-2-oxo-1,2,3,4-tetrahydroquinolin-7-yl)urea], for which the “human TRPV1 H^+ (max % remain)” value on human TRPV1 [1] is 86%. Besides, at human TRPV1 [2], the IC50 was determined as 820 nM.
In the same order, the values of `O=C1CCc2ccc(NC(=O)N[C@H]3CC4(CCC4)Oc4ccc(F)cc43)cc2N1` [Example 242, 1-[(4S)-6-fluoro-3,4-dihydrospiro[chromene-2,1′-cyclobutan]-4-yl]-3-(2-oxo-1,2,3,4-tetrahydroquinolin-7-yl)urea] are 30% and 86 nM.
`C[C@@]1(CF)C[C@@H](NC(=O)Nc2ccc3c(c2)NC(=O)CC3)c2ccc(Cl)cc2O1` [Example 246, 1-[(2S,4R)-7-chloro-2-(fluoromethyl)-2-methyl-3,4-dihydro-2H-chromen-4-yl]-3-(2-oxo-1,2,3,4-tetrahydroquinolin-7-yl)urea]: the “human TRPV1 H^+ (max % remain)” value at human TRPV1 [1] was 33%. Also, the IC50 at human TRPV1 [2] came out at 130 nM.
In the same order, the values of `CC1(C)C[C@@H](NC(=O)Nc2ccc3c(c2)NC(=O)CC3)c2cccc(F)c2O1` [Example 219, 1-[(4R)-8-fluoro-2,2-dimethyl-3,4-dihydro-2H-chromen-4-yl]-3-(2-oxo-1,2,3,4-tetrahydroquinolin-7-yl)urea] are 29% and 56 nM.
In the same order, the values of `CC1(C)C[C@@H](NC(=O)Nc2ccc3c(c2)NC(=O)CO3)c2ccccc2O1` [Example 112, 1-[(4R)-2,2-dimethyl-3,4-dihydro-2H-chromen-4-yl]-3-(3-oxo-3,4-dihydro-2H-1,4-benzoxazin-6-yl)urea] are 101% and 440 nM.
In the same order, the values of `CN1C(=O)CCc2ccc(NC(=O)N[C@@H]3CC(CF)(CF)Oc4cc(F)ccc43)cc21` [Example 296, 1-[(4R)-7-fluoro-2,2-bis(fluoromethyl)-3,4-dihydro-2H-chromen-4-yl]-3-(1-methyl-2-oxo-1,2,3,4-tetrahydroquinolin-7-yl)urea] are 68% and 130 nM.
Turning to `Cn1c(=O)ccc2c(NC(=O)N[C@@H]3C[C@@](C)(C(F)F)Oc4ccccc43)cccc21` [Example 26, 1-[(2S,4R)-2-(difluoromethyl)-2-methyl-3,4-dihydro-2H-chromen-4-yl]-3-(1-methyl-2-oxo-1,2-dihydroquinolin-5-yl)urea], the “human TRPV1 H^+ (max % remain)” value on human TRPV1 [1] worked out at 54%. The concentration for half-maximal inhibition (IC50) at human TRPV1 [2] came out at 25 nM.
The like results for `CCC1(CC)C[C@@H](NC(=O)Nc2ccc3c(c2)NC(=O)CO3)c2ccc(Cl)c(Cl)c2O1` [Example 105, 1-[(4R)-7,8-dichloro-2,2-diethyl-3,4-dihydro-2H-chromen-4-yl]-3-(3-oxo-3,4-dihydro-2H-1,4-benzoxazin-6-yl)urea] were, in that order, 79% and 460 nM.

By IC50 is commonly meant the concentration at which inhibition is half-maximal.
